Patent EP0117260A1, “4-Aminobutyric acid derivatives, a process for the preparation thereof and a pharmaceutical composition containing said derivatives” (priority 1983, dated 1984)

Experiments:
[1] = Maximum tolerance (death observed 48 hours after administration); settings: mouse, in vivo; mice; dose just smaller than the dose inducing death, observed 48 hours after the administration
[2] = Level of hopanthenic acid in blood plasma after oral administration (GC-MS); assay type: in vivo, SD-male rats; settings: rat, 389.4 umol/kg, 389.4 µmole/kg, rats, n=4, read-out: Level of hopanthenic acid in the blood plasma (average ± S.D.)
Protocol: SD-male rats, weighing about 200 g, 7 weeks age, having been fasted overnight (one group: 4 rats) were used. To each rat was orally administered a suspension (2 ml) of a test compound in a 0.5 % carboxymethyl cellulose solution with a stomach sonde (dose of test compound: […], corresponding to 100 mg/kg of calcium hopanthenate).
One or two hours after the aministration, the rats were killed by cutting whole carotid arteries, and the blood was collected. The blood of each rat was centrifuged (2,800 r.p.m., 15 minutes) to separate blood plasma. Concentration of hopanthenic acid in the blood plasma (0.1 ml) was measured by gas chromatography and mass spectrometry.

[3] = Level of hopanthenic acid in the cerebrum after oral administration (GC-MS); assay type: in vivo, SD-male rats; settings: rat, 389.4 umol/kg, 389.4 µmole/kg, rats, n=4, read-out: Level of hopanthenic acid in the cerebrum (average ± S.D.)
Protocol: SD-male rats, weighing about 200 g, 7 weeks age, having been fasted overnight (one group: 4 rats) were used. To each rat was orally administered a suspension (2 ml) of a test compound in a 0.5 % carboxymethyl cellulose solution with a stomach sonde (dose of test compound: 389.4 #mole/kg, corresponding to 100 mg/kg of calcium hopanthenate). Two or three hours after the administration, the cerebrum was taken out and washed with physiological saline solution. To the cerebrum was added 9 times volume of water, and the mixture was homogenated with a homogenizer for one minute under ice-cooling and then centrifuged at 10,000 r.p.m. at 4°C for one hour. Concentration of hopanthenic acid in the supernatant (1 ml, corresponding to 0.1 g of the cerebrum) was measured by gas chromatography and mass spectrometry. The test compounds were the same as used in Experiment 1.

[4] = Two hours after the administration

Row | SMILES | MTD at 48 h [1] [mg/kg] | concentration at 1 h ([2]; One hour after the administration) [ng/mL] | concentration at 2 h [2, 4] [ng/mL] | concentration at 3 h ([3]; Three hours after the administration) [ng/g] | concentration at 2 h [3, 4] [ng/g]
1 | CC(C)CC(=O)OCC(C)(C)[C@@H](O)C(=O)NCCCC(=O)O [Compound No. 2, D-4-[N-(4-Isovaleryloxy-3,3-dimethyl-2-hydroxy-n-butyryl)-amino]-n-butyric acid] | > 2000 | – | – | – | –
2 | CC(C)(CO)[C@@H](O)C(=O)NCCCC(=O)O [Control, Calcium D-4-[N-(2,4-dihydroxy-3,3-dimethyl-n-butyryl)amino]-n-butyrate] | – | 19400 ± 1900 | 14200 ± 1600 | 370 ± 70 | 700 ± 110
3 | CC(C)C(=O)OCC(C)(C)[C@@H](O)C(=O)NCCCC(=O)O | > 2000 | – | – | – | –
